Consider four substances from publication PMC11161800, “Principles of peptide selection by the transporter associated with antigen processing” (Proceedings of the National Academy of Sciences of the …, 2024).

The experiment concerns human TAP. The experiment is described as follows: NADH-coupled steady-state ATP hydrolysis (ATPase) assay of purified TAP. Type of experiment: biochemical. As to conditions: 28 °C; for Stimulation of ATP hydrolysis by shortened b27 peptides: TAP 0.5 µM, peptides 20 µM, ATP 3 mM, means of three technical replicates of three biological replicates (n = 9), one-way ANOVA, Fig. 4A. The method, then:
Steady-state ATP hydrolysis activity was measured using a nicotinamide adenine dinucleotide (NADH)-coupled assay. Purified TAP was diluted to a final concentration of 0.5 µM in freshly prepared reaction buffer containing 50 mM HEPES (pH 8.0 with KOH), 150 mM KCl, 2 mM MgCl2, 2 mM DTT, 0.004% (w/v) digitonin, 60 µg mL^−1 pyruvate kinase (Roche), 32 µg mL^−1 lactate dehydrogenase (Roche), 9 mM phosphoenolpyruvate and 150 µM NADH. Peptide substrates were added to a final concentration of 20 µM unless specified otherwise. Then, 30 µL aliquots were dispensed into Corning 384-well Black/Clear Flat Bottom Polystyrene NBS Microplates, and reactions were initiated by the addition of 3 mM ATP. NADH consumption was measured by monitoring the rate of NADH fluorescence depletion at λex = 340 nm and λem = 445 nm at 28 °C using an Infinite M1000 microplate reader (Tecan). Data were converted to ATP turnover with an NADH standard curve. Technical replicates were measured in parallel from the same protein preparation on the same day and biological replicates were measured from different protein preparations from different cells on different days.

“RRYQSTEL [b27′, 8-mer modified b27 peptide lacking the central lysine at position five]”: the “Stimulation of ATP hydrolysis by shortened b27 peptides” value (from here on “Stimulation of ATP hydrolysis”) was “stimulated ATP hydrolysis”. Also, under “listed as B27′”, the “Stimulation of ATP hydrolysis” value is “increased the ATPase activity of TAP to a slightly greater extend compared to b27”.

Consider “RRYSTEL [b27″, 7-mer modified b27 peptide lacking the lysine and the adjacent glutamine]”, for which the “Stimulation of ATP hydrolysis” value is “neither of the 7-mer peptides were able to stimulate ATP hydrolysis and not”. For “b27: 9-mer peptide RRYQKSTEL, well-characterized substrate transported by TAP and presented by HLA-B27 [reference compound]”, the “ATPase activity as a function of b27 concentration” value (0.5 µM TAP, 3 mM ATP, pH 8.0, three technical replicates (n = 3), Fig. 1B) is “stimulated in a dose-dependent manner”. Consider “b27″(Q): 7-mer modified b27 peptide lacking the lysine and the adjacent serine (RRYQTEL)”, for which the “Stimulation of ATP hydrolysis” value was “neither of the 7-mer peptides were able to stimulate ATP hydrolysis and not”.
